Experimental data reported in ChEMBL document CHEMBL1201862, “PubChem BioAssay data set” (2004).
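How tested: cells in 96-well plates exposed to compound for 48 hours at five concentrations. GI50 = concentration required for 50% inhibition of growth.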 Active and inactive are the calls of the source. No stated cut-off is given here; in the data, active = GI50 up to about 1.1 µM and inactive = higher.

Key:
Assay in all cases: DTP human tumour cell line panel, 48 h
[1] = system: UO-31
[2] = system: UACC-62
[3] = system: U-251
[4] = system: 786-0
[5] = system: RPMI-8226
[6] = system: PC-3
[7] = system: SR
[8] = system: SK-MEL-2
[9] = system: DU-145
[10] = system: K562
[11] = system: OVCAR-3
[12] = system: SF-268
[13] = system: ACHN
[14] = system: NCI-H226
[15] = system: SK-OV-3
[16] = system: NCI/ADR-RES
[17] = system: IGROV-1
[18] = system: HCC 2998
[19] = system: CAKI-1
[20] = system: HOP-92

| Compound | GI50 [1] | GI50 [2] | GI50 [3] | GI50 [4] | GI50 [5] | GI50 [6] | GI50 [7] | GI50 [8] | GI50 [9] | GI50 [10] | GI50 [11] | GI50 [12] | GI50 [13] | GI50 [14] | GI50 [15] | GI50 [16] | GI50 [17] | GI50 [18] | GI50 [19] | GI50 [20] |
| --- | --- | --- | --- | --- | --- | --- | --- | --- | --- | --- | --- | --- | --- | --- | --- | --- | --- | --- | --- | --- |
| CC(C)(C)NC(=O)CCC1C(C(=O)NC(C)(C)C)C2(Cl)C(Cl)=C(Cl)C1(Cl)C2(Cl)Cl (stereo unspecified) | > 100 µM (inactive) | > 100 µM (inactive) | > 100 µM (inactive) | > 100 µM (inactive) | > 100 µM (inactive) | > 100 µM (inactive) | > 100 µM (inactive) | > 100 µM (inactive) | > 100 µM (inactive) | > 100 µM (inactive) | > 100 µM (inactive) | > 100 µM (inactive) | > 100 µM (inactive) | > 100 µM (inactive) | > 100 µM (inactive) | > 100 µM (inactive) | > 100 µM (inactive) | > 100 µM (inactive) | – | – |
| CCN(CC)CCCNc1nc(=O)[nH]c(C)c1C(=O)Nc1cccc2cc3ccccc3cc12 | > 100 µM (inactive) | > 100 µM (inactive) | > 100 µM (inactive) | > 100 µM (inactive) | > 100 µM (inactive) | > 100 µM (inactive) | – | > 100 µM (inactive) | > 100 µM (inactive) | > 100 µM (inactive) | > 100 µM (inactive) | – | > 100 µM (inactive) | > 100 µM (inactive) | > 100 µM (inactive) | > 100 µM (inactive) | > 100 µM (inactive) | > 100 µM (inactive) | > 100 µM (inactive) | 62.2 µM (inactive) |
| N#Cc1nc(CCCN2C(=O)c3ccccc3C2=O)oc1N | > 100 µM (inactive) | – | > 100 µM (inactive) | > 100 µM (inactive) | > 100 µM (inactive) | > 100 µM (inactive) | > 100 µM (inactive) | > 100 µM (inactive) | > 100 µM (inactive) | > 100 µM (inactive) | > 100 µM (inactive) | > 100 µM (inactive) | > 100 µM (inactive) | > 100 µM (inactive) | > 100 µM (inactive) | > 100 µM (inactive) | > 100 µM (inactive) | > 100 µM (inactive) | > 100 µM (inactive) | – |
| COc1cc2c(cc1OCCCCCCCCN1C(=O)c3cccc4cccc(c34)C1=O)N=C[C@@H]1CCCN1C2=O | 17.2 µM (inactive) | 13.5 µM (inactive) | 6.62 µM (inactive) | 23.6 µM (inactive) | 2.96 µM (inactive) | 7.45 µM (inactive) | 4.07 µM (inactive) | 14.6 µM (inactive) | 50.2 µM (inactive) | 3.87 µM (inactive) | 11.1 µM (inactive) | 15 µM (inactive) | 16 µM (inactive) | 14.7 µM (inactive) | 1.79 µM (inactive) | 3.27 µM (inactive) | 3.11 µM (inactive) | 14.2 µM (inactive) | 13.3 µM (inactive) | – |
| Cc1c(NC(=S)NN)c(=O)n(-c2ccccc2)n1C | > 100 µM (inactive) | > 100 µM (inactive) | > 100 µM (inactive) | > 100 µM (inactive) | > 100 µM (inactive) | > 100 µM (inactive) | > 100 µM (inactive) | > 100 µM (inactive) | > 100 µM (inactive) | > 100 µM (inactive) | > 100 µM (inactive) | > 100 µM (inactive) | – | 1.58 µM (inactive) | > 100 µM (inactive) | > 100 µM (inactive) | > 100 µM (inactive) | – | > 100 µM (inactive) | – |
| COc1ccc(-c2c(C#N)c(S)n(NS(=O)(=O)c3ccccc3)c(=O)c2C#N)cc1 | 65 µM (inactive) | 34.5 µM (inactive) | 40.4 µM (inactive) | 35.2 µM (inactive) | 42.8 µM (inactive) | 37.7 µM (inactive) | 23.1 µM (inactive) | 47 µM (inactive) | > 100 µM (inactive) | 42.5 µM (inactive) | 87.9 µM (inactive) | 62.7 µM (inactive) | 55.7 µM (inactive) | > 100 µM (inactive) | > 100 µM (inactive) | 70.5 µM (inactive) | 31.9 µM (inactive) | > 100 µM (inactive) | > 72.8 µM (inactive) | – |
| COC(=O)c1c2c(cc3c1CCC3)CCC2 | 72.8 µM (inactive) | 51.1 µM (inactive) | 51.9 µM (inactive) | 80.7 µM (inactive) | 20.2 µM (inactive) | 44.7 µM (inactive) | 18.2 µM (inactive) | 24.8 µM (inactive) | 65.8 µM (inactive) | 29.6 µM (inactive) | > 100 µM (inactive) | 95.7 µM (inactive) | > 100 µM (inactive) | 54.7 µM (inactive) | 91.4 µM (inactive) | > 100 µM (inactive) | > 100 µM (inactive) | 59.4 µM (inactive) | 72.4 µM (inactive) | – |
| CC1=C[P+](c2ccccc2)(c2ccccc2)c2ccccc2O1 | > 100 µM (inactive) | 8 µM (inactive) | 3.65 µM (inactive) | 25.2 µM (inactive) | – | 3.32 µM (inactive) | 1.56 µM (inactive) | 4.17 µM (inactive) | 19.2 µM (inactive) | 0.524 µM (active) | 1.14 µM (inactive) | 16.6 µM (inactive) | 30.6 µM (inactive) | 15.2 µM (inactive) | 25 µM (inactive) | > 100 µM (inactive) | 5.28 µM (inactive) | – | 23.5 µM (inactive) | 3.73 µM (inactive) |
